US10280170B2, “Substituted 4,5,6,7-tetrahydro-pyrazolo[1,5-a]pyrazine derivatives and 5,6,7,8-tetrahydro-4H-pyrazolo[1,5-a][1,4]diazepine derivatives as Ros1 inhibitors” (Janssen Pharmaceutica NV, priority 2014, dated 2019)
Where two headings read alike, the source gives them in different places.

Columns and labels:
[1] = target: T1, Ros1 enzyme (Homo sapiens, UniProt P08922); assay: Ros1 enzymatic assay; format: biochemical; conditions: Ros1 enzymatic assay; read-out: ROS1 pIC50 (converted)
T1 construct: 0.5 μg/ml Ros1 enzyme
T1 sequence (P08922 28-2347): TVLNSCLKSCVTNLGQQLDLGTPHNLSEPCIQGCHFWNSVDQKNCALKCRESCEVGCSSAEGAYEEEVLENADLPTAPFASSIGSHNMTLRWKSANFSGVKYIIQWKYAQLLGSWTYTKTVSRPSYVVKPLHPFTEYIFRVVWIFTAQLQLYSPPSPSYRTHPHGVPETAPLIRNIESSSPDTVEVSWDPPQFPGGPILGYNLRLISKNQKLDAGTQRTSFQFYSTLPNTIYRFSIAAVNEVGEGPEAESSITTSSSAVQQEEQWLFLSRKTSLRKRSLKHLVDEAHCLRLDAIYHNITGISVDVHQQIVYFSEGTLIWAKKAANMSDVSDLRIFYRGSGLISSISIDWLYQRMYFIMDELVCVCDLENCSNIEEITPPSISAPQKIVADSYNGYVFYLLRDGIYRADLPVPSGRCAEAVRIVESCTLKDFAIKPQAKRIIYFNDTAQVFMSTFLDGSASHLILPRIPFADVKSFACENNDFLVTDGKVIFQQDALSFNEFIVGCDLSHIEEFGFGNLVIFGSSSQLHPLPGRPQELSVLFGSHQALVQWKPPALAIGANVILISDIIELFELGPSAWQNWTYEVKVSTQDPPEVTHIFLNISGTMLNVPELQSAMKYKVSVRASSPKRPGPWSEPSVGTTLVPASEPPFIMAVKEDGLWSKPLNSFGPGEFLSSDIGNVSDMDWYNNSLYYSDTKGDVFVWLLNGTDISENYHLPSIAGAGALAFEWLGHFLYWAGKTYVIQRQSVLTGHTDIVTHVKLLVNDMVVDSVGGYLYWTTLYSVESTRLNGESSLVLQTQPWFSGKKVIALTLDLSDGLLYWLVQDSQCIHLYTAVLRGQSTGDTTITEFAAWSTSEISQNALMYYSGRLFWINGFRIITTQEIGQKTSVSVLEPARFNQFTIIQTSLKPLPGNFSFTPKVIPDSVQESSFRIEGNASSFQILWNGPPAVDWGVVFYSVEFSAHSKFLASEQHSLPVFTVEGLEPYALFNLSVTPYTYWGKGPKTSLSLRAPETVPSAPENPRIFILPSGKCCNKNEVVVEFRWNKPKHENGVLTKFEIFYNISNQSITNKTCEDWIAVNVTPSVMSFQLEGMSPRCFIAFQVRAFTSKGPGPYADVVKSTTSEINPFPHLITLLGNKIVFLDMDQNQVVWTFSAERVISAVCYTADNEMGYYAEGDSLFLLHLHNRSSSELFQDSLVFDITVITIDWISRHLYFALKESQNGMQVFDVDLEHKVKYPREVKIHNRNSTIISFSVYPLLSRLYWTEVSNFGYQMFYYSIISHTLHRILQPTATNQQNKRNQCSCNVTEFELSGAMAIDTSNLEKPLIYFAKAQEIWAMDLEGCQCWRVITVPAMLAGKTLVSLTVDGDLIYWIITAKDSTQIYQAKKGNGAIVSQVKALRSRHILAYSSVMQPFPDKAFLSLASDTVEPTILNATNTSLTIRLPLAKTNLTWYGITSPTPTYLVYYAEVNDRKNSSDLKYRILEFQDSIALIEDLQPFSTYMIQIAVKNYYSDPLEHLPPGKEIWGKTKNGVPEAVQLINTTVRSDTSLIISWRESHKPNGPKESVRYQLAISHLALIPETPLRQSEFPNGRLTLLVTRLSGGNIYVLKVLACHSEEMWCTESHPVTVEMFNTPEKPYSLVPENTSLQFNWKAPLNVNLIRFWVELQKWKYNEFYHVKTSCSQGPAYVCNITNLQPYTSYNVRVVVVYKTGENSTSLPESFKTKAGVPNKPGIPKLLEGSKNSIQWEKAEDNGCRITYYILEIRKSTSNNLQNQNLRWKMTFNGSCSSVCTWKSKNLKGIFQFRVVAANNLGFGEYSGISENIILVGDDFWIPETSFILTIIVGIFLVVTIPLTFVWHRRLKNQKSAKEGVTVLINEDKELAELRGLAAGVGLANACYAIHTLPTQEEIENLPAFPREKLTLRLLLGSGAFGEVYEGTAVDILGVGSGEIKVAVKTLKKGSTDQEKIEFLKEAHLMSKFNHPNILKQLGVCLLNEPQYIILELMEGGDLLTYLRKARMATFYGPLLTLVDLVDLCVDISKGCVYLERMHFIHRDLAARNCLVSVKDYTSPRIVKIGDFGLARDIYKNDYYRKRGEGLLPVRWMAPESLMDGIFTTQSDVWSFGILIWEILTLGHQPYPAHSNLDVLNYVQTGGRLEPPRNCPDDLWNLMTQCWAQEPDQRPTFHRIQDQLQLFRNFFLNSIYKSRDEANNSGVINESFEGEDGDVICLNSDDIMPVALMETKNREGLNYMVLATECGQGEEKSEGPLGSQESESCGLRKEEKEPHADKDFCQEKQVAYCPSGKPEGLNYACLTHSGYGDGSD
Procedure, shortened: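 Peptide phosphorylation by Ros1 is measured by 33P transfer from 20 μM ATP (as prepared in substrate mix) over 2 h at ambient temperature, pH 7.5 with Mg2+.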

[2] = target: Ba/F3 cells containing Ros1 with G2032R mutation (Homo sapiens, UniProt P08922, G2032R, cells depend on it, form not given); assay: Ba/F3-Ros1 cell proliferation assay, G2032R crizotinib-resistance mutant; format: cell-based, murine; conditions: without IL-3
Chain of Ba/F3 cells containing Ros1 with G2032R mutation (P08922 whole entry G2032R, form open): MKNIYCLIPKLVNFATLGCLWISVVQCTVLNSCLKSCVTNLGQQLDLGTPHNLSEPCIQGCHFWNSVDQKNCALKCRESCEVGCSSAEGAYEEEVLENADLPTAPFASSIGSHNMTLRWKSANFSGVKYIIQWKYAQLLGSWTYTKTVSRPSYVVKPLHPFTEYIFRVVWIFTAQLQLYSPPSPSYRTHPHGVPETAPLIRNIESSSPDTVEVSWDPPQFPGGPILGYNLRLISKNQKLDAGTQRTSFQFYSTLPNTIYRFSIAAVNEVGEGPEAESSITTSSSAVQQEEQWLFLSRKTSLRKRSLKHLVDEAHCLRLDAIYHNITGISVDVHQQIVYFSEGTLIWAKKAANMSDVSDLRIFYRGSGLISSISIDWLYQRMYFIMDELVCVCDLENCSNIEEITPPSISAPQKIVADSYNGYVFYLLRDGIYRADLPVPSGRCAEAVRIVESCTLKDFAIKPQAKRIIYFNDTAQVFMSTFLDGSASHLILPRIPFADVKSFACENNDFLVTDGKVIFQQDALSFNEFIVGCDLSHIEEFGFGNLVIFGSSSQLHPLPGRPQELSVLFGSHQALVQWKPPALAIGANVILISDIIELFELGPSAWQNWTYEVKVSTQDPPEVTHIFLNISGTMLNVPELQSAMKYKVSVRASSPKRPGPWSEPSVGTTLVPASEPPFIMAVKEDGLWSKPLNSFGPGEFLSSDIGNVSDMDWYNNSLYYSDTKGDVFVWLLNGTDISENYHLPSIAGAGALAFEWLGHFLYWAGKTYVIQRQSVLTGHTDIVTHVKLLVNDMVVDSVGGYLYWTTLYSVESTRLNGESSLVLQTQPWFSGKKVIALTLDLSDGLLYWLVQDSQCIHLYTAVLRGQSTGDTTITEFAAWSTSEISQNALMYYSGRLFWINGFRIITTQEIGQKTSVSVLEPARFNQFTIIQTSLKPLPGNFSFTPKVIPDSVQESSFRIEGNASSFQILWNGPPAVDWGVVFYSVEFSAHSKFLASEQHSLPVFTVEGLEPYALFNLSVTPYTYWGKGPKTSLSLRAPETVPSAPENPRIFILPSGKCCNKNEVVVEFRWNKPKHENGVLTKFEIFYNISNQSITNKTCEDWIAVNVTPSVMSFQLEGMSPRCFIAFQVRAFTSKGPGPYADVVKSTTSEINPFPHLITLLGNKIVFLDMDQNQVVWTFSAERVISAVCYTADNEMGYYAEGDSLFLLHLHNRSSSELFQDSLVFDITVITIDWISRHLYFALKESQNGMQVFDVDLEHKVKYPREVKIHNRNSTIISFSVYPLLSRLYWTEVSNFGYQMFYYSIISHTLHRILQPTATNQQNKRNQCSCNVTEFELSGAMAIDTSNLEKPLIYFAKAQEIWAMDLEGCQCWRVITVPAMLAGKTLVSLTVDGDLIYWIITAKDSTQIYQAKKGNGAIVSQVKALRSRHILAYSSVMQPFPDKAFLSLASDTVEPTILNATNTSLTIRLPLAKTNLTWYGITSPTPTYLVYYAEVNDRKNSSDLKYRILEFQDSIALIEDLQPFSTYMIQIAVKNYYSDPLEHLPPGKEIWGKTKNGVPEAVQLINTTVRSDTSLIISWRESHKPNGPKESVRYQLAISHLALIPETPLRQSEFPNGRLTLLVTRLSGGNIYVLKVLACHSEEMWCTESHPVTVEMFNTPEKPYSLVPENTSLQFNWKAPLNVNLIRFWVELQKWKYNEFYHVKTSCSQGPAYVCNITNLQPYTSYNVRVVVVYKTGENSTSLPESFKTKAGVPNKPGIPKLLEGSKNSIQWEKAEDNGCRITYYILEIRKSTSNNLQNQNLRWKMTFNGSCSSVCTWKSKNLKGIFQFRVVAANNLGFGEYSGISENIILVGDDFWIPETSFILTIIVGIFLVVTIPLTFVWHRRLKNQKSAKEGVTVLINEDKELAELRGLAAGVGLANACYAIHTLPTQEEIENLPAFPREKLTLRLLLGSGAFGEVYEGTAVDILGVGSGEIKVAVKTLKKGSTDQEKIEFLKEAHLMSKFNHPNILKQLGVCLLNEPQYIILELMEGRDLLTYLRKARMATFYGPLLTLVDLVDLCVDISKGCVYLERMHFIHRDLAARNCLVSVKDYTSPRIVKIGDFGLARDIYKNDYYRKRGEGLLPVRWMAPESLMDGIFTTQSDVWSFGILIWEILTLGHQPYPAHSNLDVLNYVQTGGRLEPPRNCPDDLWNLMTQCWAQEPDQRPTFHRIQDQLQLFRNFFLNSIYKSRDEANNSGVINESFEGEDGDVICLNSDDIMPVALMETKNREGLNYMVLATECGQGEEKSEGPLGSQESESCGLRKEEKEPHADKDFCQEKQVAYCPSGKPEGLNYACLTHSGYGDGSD
Protocol: Ba/F3-Ros1 Cell Proliferation Assay
This assay was carried out with Ba/F3 cells containing three different versions of Ros1: the wild-type protein, protein with a mutation at the gatekeeper residue (L2026M), and protein with a mutation identified in a tumor from a patient that became resistant to crizotinib (Xalkori®) treatment (G2032R). Compounds were solubilized in 100% DMSO (dimethyl sulfoxide) and sprayed into polystyrene, tissue culture treated 384-well plates. A 50 μl volume of cell culture medium (phenol red free RPMI-1640, 10% FBS (fetal bovine serum), 2 mM L-Glutamine) containing 20000 Ba/F3-Ros1 cells was added to each well and the plates were placed in an incubator at 37° C. and 5% CO2. After 24 hours, 10 μl of Alamar Blue solution (0.5 mM K3Fe(CN)6, 0.5 mM K4Fe(CN)6, 0.15 mM Resazurin and 100 mM Phosphate Buffer) was added to the wells, incubated for 4 hours at 37° C. and 5% CO2 before RFU's (Relative Fluorescence Units) (ex. 540 nm., em. 590 nm.) were measured in a fluorescence plate reader.

[3] = system: Ros pY2274 in HCC78 cells; assay: pROS1 immunofluorescence assay in HCC78 cells; format: cell-based; conditions: Homo sapiens, read-out: HCC78-pRos1 pIC50 (converted)
Protocol: pROS1 Immunofluorescence Assay in HCC78 Cells
Approximately 20000 HCC78 non-small cell lung cancer cells in 180 μl of cell culture medium (RPMI-1640, 10% FBS, 2 mM L-Glutamine, 10 mM Hepes, 1 mM sodium pyruvate, 4.5 g/L glucose, 1.5 g/L sodium bicarbonate, 25 μg/ml Gentamycin) were seeded in each well of a 96-well polystyrene, poly-D-lysine coated plate and incubated at 37° C. and 5% CO2. After 24 hours, compounds were diluted in cell culture medium from which 20 μl was added to the wells containing cells and incubated for 4 hours at 37° C. and 5% CO2. The medium was removed and the cells were fixed by adding 100 μl of 5% formaldehyde in TBS (tris-buffered saline) (50 mM Tris.HCl, pH 7.4, 150 mM NaCl) and incubating for 15 minutes at room temperature. The formaldehyde was removed and replaced with methanol for 10 minutes at room temperature, after which the cells were washed 3 times with TBS containing 1% Triton X-100 and incubated in Odyssee (Li-Cor) blocking buffer for 1 hour at room temperature. The cells were then incubated with the primary rabbit antibody directed against Ros pY2274 (cst-3078) diluted 1/200 in blocking buffer for 24 hours at room temperature. The cells were washed three times with TBS containing 0.1% Triton X-100 and incubated with a secondary anti-rabbit antibody conjugated to the fluorescent dye Alexafluor 680 in blocking buffer for 1 hour at room temperature. The cells were washed three times with TBS containing 0.1% Triton X-100 and left to dry before measuring RFUs (Relative Fluorescence Units) at 700 nm using a fluorescence imager.
The same experiment was performed using total Ros1 antibody (sc-6347) diluted 1/1000 instead of Ros1 pY2274 antibody and an anti-goat antibody conjugated to IRDye800cw as a secondary antibody. RFUs were measured at […]. The signals from total Ros1 detection were used to normalize the Ros1 pY2274 values.

[4] = system: Ba/F3 cells containing Ros1 wild-type protein + IL-3; assay: Ba/F3-Ros1 cell proliferation counter-screen, wild-type protein in the presence of 10 ng/ml murine IL-3; format: cell-based; conditions: Mus musculus, BaF3, 24 h, read-out: BaF3-ROS1 + IL3 pIC50 (converted)
Procedure, shortened: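 Proliferation of IL-3-supplemented (10 ng/ml, murine) Ba/F3 cells bearing wild-type Ros1 is measured after 24 h compound treatment. Alamar Blue conversion over 4 h gives fluorescence at 590 nm.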

[5] = target: T2, Ba/F3 cells containing Ros1 wild-type protein (Homo sapiens, UniProt P08922, cells depend on it, form not given); assay: Ba/F3-Ros1 cell proliferation assay, wild-type Ros1; format: cell-based, murine; conditions: without IL-3
T2 construct: The background only speaks of 'a number of different unrelated proteins' and names SLC34A2-ROS1 for HCC78 cells
T2 sequence (P08922 whole entry, stated change not applied): as the sequence (P08922 whole entry G2032R, form open) above, with R2032G counted along it
Procedure, shortened: (§1)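 Alamar Blue read-out (resazurin, ex. 540 nm, em. 590 nm, 4 h at 37 °C) after 24 h compound exposure of 20000 Ba/F3-Ros1 cells per well. Cells carry WT, gatekeeper L2026M or crizotinib-resistant G2032R Ros1; medium RPMI-1640, 10% FBS, 2 mM L-Glutamine.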

[6] = target: Ba/F3 cells containing Ros1 with a mutation at the gatekeeper residue (L2026M) (Homo sapiens, UniProt P08922, L2026M, cells depend on it, form not given); assay: Ba/F3-Ros1 cell proliferation assay, L2026M gatekeeper mutant; format: cell-based, murine; conditions: without IL-3
Chain of Ba/F3 cells containing Ros1 with a mutation at the gatekeeper residue (L2026M) (P08922 whole entry L2026M, form open): as the sequence (P08922 whole entry G2032R, form open) above, with L2026M, R2032G counted along it
Procedure, shortened: as §1

[7] = system: HCC78 non-small cell lung cancer cells; assay: HCC78 cell proliferation assay; format: cell-based; conditions: Homo sapiens, HCC78, 96 h, read-out: HCC-78 PROL pEC50 (converted)
Procedure, shortened: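 HCC78 NSCLC cells (~1000/well) in RPMI-1640 with 10% FBS were treated 24 h after seeding and exposed to compound for 4 days at 37 °C. Viability was read by MTT, with absorbance at 538 nm after DMSO/glycine solubilization.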

[8] = counter-screen, wild-type, 10 ng/ml murine IL-3
[9] = HCC78 cells, 4 hours, Ros pY2274 normalized to total Ros1

| EC50 ([7]; HCC78 cells, 4 days, MTT) [nM] | Structure (SMILES) | melting point [°C] | IC50 [1] [nM] | Ba/3 Ros1 G2032R (-IL-3) pIC50 [2] | IC50 ([3]; HCC78, 4 h) [nM] | CC50 [4] [nM] | BaF3-ROS1-IL3 pIC50 [5] | Ba/F3 Ros1 L2026M (-IL-3) pIC50 [6] | EC50 [7] [nM] | CC50 [4, 8] [nM] | IC50 [3, 9] [nM] |
| --- | --- | --- | --- | --- | --- | --- | --- | --- | --- | --- | --- |
| – | O=C1NCCn2nc(-c3ccncc3)c(-c3ccc(OCc4ccc(C5CC5)cc4)cc3)c21 [Compound 4] | 262 | 39.8 | 6.8 | 79.4 | > 10000 | 7.6 | 7.4 | 200 | – | – |
| – | CC(C)c1ccc(COc2ccc(-c3c(-c4ccncc4)nn4c3C(=O)NCC4)c(F)c2)cc1 [Compound 6] | 271 | 10 | 7.4 | 15.8 | > 10000 | 7.9 | 7.7 | 63.1 | – | – |
| – | CC(C)c1ccc(COc2ccc(-c3c(-c4ccnc(N)c4)nn4c3C(=O)NCC4)cc2)cc1 [Compound 7] | 267 | 39.8 | 6.8 | 100 | > 10000 | 7.4 | 7.4 | 251 | – | – |
| – | CC(C)(C#N)c1ccc(COc2ccc(-c3c(-c4ccncc4)nn4c3C(=O)NCC4)cc2)cc1 [Compound 10] | 280 | 79.4 | 6.6 | 25.1 | > 10000 | 7.1 | 6.9 | 158 | – | – |
| – | COc1cc(-c2c(-c3ccncc3)nn3c2C(=O)NCC3)ccc1OCc1ccc(C(C)C)cc1 [Compound 32] | 187 | 6.31 | 7.3 | 15.8 | > 10000 | 8.0 | 8.0 | 50.1 | – | – |
| – | CC(C)c1ccc(COc2ccc(-c3c(-c4ccncc4)nn4c3C(=O)N(C(C)C)CC4)cc2)cc1 [Compound 49] | 168 | 39.8 | 6.9 | 31.6 | > 10000 | 7.3 | 7.2 | 100 | – | – |
| 100 | CC(C)c1ccc(COc2ccc(-c3c(-c4ccncc4)nn4c3C(=O)N(CCOCCO)CC4)cc2)cc1 [Compound 53] | 121 | 39.8 | 7.0 | – | – | 7.4 | 6.9 | – | > 10000 | – |
| – | CC(C)c1ccc(COc2ccc(-c3c(-c4ccncc4)nn4c3C(=O)N(CC3(C)COC3)CC4)cc2)cc1 [Compound 54] | 204 | 79.4 | 6.6 | 20 | > 10000 | 7.3 | 7.2 | 79.4 | – | – |
| – | CNC(=O)CN1CCn2nc(-c3ccncc3)c(-c3ccc(OCc4ccc(C(C)C)cc4)cc3)c2C1=O [Compound 63] | 161 | 100 | 6.7 | – | > 10000 | 7.1 | 7.3 | 398 | – | – |
| – | COCCc1cc(COc2ccc(-c3c(-c4ccncc4)nn4c3C(=O)NCC4)cc2)ccc1C(C)C [Compound 84] | 208 | 25.1 | 7.0 | – | > 10000 | 7.7 | 7.2 | 31.6 | – | – |
| – | CC(C)c1cc(F)c(COc2ccc(-c3c(-c4ccncc4)nn4c3C(=O)N(CCO)CC4)cc2)cc1F [Compound 97] | 147 | 158 | <5 | – | > 10000 | 6.9 | 6.3 | 3160 | – | – |
| 1000 | COc1ccc(COc2ccc(-c3c(-c4ccncc4)nn4c3C(=O)NCC4)cc2)cc1 [Compound 112] | 260 | 158 | 5.8 | – | – | 6.8 | – | – | > 10000 | 316 |
| – | CC(C)c1ccc(COc2ccc(-c3c(-c4ccncn4)nn4c3C(=O)NCC4)cc2)cc1 [Compound 158] | – | 50.1 | 6.5 | 126 | > 10000 | 7.4 | 7.4 | 316 | – | – |
| – | CC(C)c1ccc(COc2ccc(-c3c(-c4ccncn4)nn4c3C(=O)N(CCO)CC4)cc2)cc1 [Compound 159] | 160 | 50.1 | 6.4 | – | > 10000 | 7.3 | 7.2 | 63.1 | – | – |
| 1580 | c1cc(-c2nn3c(c2-c2ccc(OCc4ccc(C5CC5)cc4)cc2)CNC2(CC2)C3)ccn1 [Compound 171] | 152 | 398 | 6.0 | – | – | 6.2 | – | – | > 10000 | 501 |
| 3980 | c1cc(-c2nn3c(c2-c2ccc(OCc4ccc(C5CC5)cc4)cc2)CNCC3)ccn1 [Compound 172] | – | 631 | 5.2 | – | – | 6.4 | 6.3 | – | > 10000 | 316 |
| 1580 | O=C1NC2(CNC2)Cn2nc(-c3ccncc3)c(-c3ccc(OCc4ccc(C5CC5)cc4)cc3)c21 [Compound 183] | 173 | 200 | 5.6 | – | – | 6.0 | – | – | > 10000 | 398 |
